Results on 31 molecules are retold here after patent US6281214A, “Biphenyl derivatives” (Eisai Co., Ltd, priority 1994, dated 2001).

Where two headings read alike, the source gives them in different places. Some results are limits rather than exact numbers.

Common to all, as to design: species or system SD rats
The target in one test is adrenergic α1 receptor. Nature of the test: adrenergic α1 receptor binding test ([3H] Prazosin Binding Test). Conditions: 1 nM [3H] Prazosin, rat cortex, room temperature, 60 minutes. In short, it runs like this:
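Rat (SD, 6-8 weeks) cerebral cortex membranes in 50 mM Tris-HCl pH 7.4 incubated with 1 nM [3H]prazosin for 60 min at room temperature; nonspecific binding defined with phentolamine. IC50 by probit method, converted to Ki using radioligand concentration and Scatchard-derived Kd.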

For a further test, the target named is T1, serotonin S2 receptor (Rattus norvegicus, UniProt P14842).
T1 construct: The receptor fraction prepared from the cortex was molten and suspended; from tissue; host or cells: cerebral cortex of SD rats (membrane fraction)
T1 sequence (P14842 whole entry): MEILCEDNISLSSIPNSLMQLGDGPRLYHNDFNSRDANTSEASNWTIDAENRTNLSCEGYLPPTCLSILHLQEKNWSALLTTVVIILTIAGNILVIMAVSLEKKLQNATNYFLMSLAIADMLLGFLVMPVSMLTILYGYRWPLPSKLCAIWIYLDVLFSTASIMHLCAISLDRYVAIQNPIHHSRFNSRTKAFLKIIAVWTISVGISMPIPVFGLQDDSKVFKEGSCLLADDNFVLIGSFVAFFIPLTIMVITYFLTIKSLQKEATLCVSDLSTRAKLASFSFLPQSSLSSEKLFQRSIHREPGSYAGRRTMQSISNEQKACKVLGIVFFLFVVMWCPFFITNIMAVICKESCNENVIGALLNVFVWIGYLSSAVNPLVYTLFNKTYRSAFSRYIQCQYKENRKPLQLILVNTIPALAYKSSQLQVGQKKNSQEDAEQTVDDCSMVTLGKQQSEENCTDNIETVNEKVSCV
Put plainly: serotonin S2 receptor binding test ([3H] Ketanserin Binding Test). The note with it: 1 nM [3H] Ketanserin, rat cortex, 37° C., 15 minutes. An outline of the steps: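 Ki values came from probit IC50s corrected for radioligand concentration and Kd (Scatchard). Binding used 1 nM [3H]ketanserin with SD rat cortex membrane fractions, 15 min at 37 °C in Tris-HCl pH 7.4. Bound radioactivity was measured after GF/B filtration, with methysergide for nonspecific binding.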

A further test has as its target T2, dopamine D2 receptor (Rattus norvegicus, UniProt P61169).
T2 construct: the receptor fraction prepared from the corpus striatum was molten and suspended; from tissue; host or cells: corpus striatum of SD rats (membrane fraction)
Put plainly: dopamine D2 receptor binding test ([3H] Spiperone Binding Test). Conditions: 1 nM [3H] Spiperone, rat corpus striatum, room temperature, 60 minutes. In short, it runs like this: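 Rat (SD, 6–8 weeks) corpus striatum membranes in 50 mM Krebs-Tris pH 7.4 were incubated with 1 nM [3H]spiperone at room temperature for 60 minutes, with nonspecific binding defined by excess spiperone. IC50 came from probit analysis; Ki was derived using radioligand concentration and Scatchard Kd.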

Setting [1] is: read-out: Ki value, dopamine D2 receptor.

T2 sequence (P61169 whole entry): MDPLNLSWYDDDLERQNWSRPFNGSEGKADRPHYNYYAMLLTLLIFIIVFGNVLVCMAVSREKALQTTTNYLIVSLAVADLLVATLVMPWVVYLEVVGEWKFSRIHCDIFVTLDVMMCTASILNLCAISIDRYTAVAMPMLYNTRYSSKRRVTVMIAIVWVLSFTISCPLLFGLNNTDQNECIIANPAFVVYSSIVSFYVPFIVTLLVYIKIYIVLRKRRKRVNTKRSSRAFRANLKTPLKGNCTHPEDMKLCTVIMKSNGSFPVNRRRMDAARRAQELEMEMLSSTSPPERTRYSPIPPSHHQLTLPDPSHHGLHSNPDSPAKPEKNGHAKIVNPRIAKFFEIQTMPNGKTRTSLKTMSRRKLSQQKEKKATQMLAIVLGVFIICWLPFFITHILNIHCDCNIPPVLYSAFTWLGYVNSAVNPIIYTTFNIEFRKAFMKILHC

As to `CCCS(=O)(=O)Nc1cc(N2CCN(CC)CC2)cc(-c2ccc(Cl)cc2Cl)c1Cl` [Example 189, 1-Ethyl-4-[3-(2,4-dichlorophenyl)-4-chloro-5-propanesulfonyamino]phenylpiperazine], the inhibition constant Ki (as a rule, a measure of affinity in units of concentration, obtained from inhibition or displacement) on adrenergic α1 receptor is 32.5 nM; at serotonin S2 receptor, greater than 100 nM; at dopamine D2 receptor (setting [1]) it was 1.51 nM.

`CCN1CCN(c2cc(NS(=O)(=O)CC)c(Cl)c(-c3ccccc3Cl)c2)CC1` [Example 31, 1-Ethyl-4-[3-(2-chlorophenyl)-4-chloro-5-ethanesulfonylamino]phenylpiperazine]: the values for the inhibition constant Ki at adrenergic α1 receptor, on serotonin S2 receptor and at dopamine D2 receptor (setting [1]) were 36.1 nM, 12.4 nM and 0.69 nM, respectively.

For the molecule `CCN1CCN(c2cc(CCC(C)=O)c(OC)c(-c3ccccc3)c2)CC1` [Example 114, 1-Ethyl-4-[3-phenyl-4-methoxy-5-(2-acetylethyl)]phenylpiperazine], the Ki on adrenergic α1 receptor is 569 nM; at serotonin S2 receptor, 151 nM; at dopamine D2 receptor (setting [1]) it was 165 nM.

Regarding `CCN1CCN(c2cc(-c3ccccc3)c(OC)c(S(N)(=O)=O)c2)CC1` [Example 124, 1-Ethyl-4-(3-phenyl-4-methoxy-5-aminosulfonyl)phenylpiperazine], the Ki on adrenergic α1 receptor was greater than 1000 nM; at serotonin S2 receptor it was greater than 1000 nM; on dopamine D2 receptor (setting [1]) it was 99.2 nM.

As to `CCCCOC(CC)c1cc(N2CCN(CC)CC2)cc(-c2ccccc2)c1OC` (stereo not drawn) [Example 81], the Ki on adrenergic α1 receptor was greater than 1000 nM; on serotonin S2 receptor it was 241 nM; at dopamine D2 receptor (setting [1]), 38.3 nM.

Take `CCN1CCN(c2cc(-c3ccccc3C)c(Cl)c(C(F)CC(C)C)c2)CC1` (stereo not drawn) [Example 51, 1-Ethyl-4-[3-(2-tolyl)-4-chloro-5-(1-fluoro-3-methylbutyl)]phenylpiperazine]: the inhibition constant (Ki) on adrenergic α1 receptor is greater than 1000 nM; on serotonin S2 receptor, 164 nM; at dopamine D2 receptor (setting [1]) it was 27.2 nM.

As to `CCC(F)c1cc(N2CCN(CC)CC2)cc(-c2ccccc2C)c1Cl` (stereo not drawn) [Example 27, 1-Ethyl-4-[3-(2-tolyl)-4-chloro-5-(1-fluloropropyl)]phenylpiperazine], the inhibition constant Ki on adrenergic α1 receptor amounted to 455 nM; on serotonin S2 receptor it was 10.9 nM; at dopamine D2 receptor (setting [1]) it was 11.2 nM.

As to `CCC(CC)c1cc(N2CCN(CC)CC2)cc(-c2ccccc2C)c1Cl` [Example 157, 1-Ethyl-4-[3-(2-tolyl)-4-chloro-5-(1-ethylpropyl)]phenylpiperazine], the values for the inhibition constant Ki on adrenergic α1 receptor, on serotonin S2 receptor and at dopamine D2 receptor (setting [1]) were greater than 1000 nM, 74.4 nM and 7.26 nM, respectively.

With `CCCS(=O)(=O)Nc1cc(N2CCN(CC)CC2)cc(-c2ccccc2C)c1Cl` [Example 153, 1-Ethyl-4-[3-(2-tolyl)-4-chloro-5-propanesulfonylamino]phenylpiperazine], the Ki at adrenergic α1 receptor turned out to be 68.7 nM; at serotonin S2 receptor, 4.19 nM; on dopamine D2 receptor (setting [1]) it was 1.53 nM.

With `CCN1CCN(c2cc(C(Cc3ccc(F)cc3)=NO)c(OC)c(-c3ccccc3)c2)CC1` [Example 98, 1-Ethyl-4-{3-phenyl-4-methoxy-5-[4-fluoro-(1-hydroxyimino)phentheyl]}phenylpiperazine], the inhibition constant Ki is greater than 1000 nM at adrenergic α1 receptor, 19.3 nM on serotonin S2 receptor and 64.5 nM on dopamine D2 receptor (setting [1]).

For the molecule `CCN1CCN(c2cc(-c3ccccc3)c(OC)c(C(C)CO)c2)CC1` (stereo not drawn) [Example 87], the Ki was greater than 1000 nM at adrenergic α1 receptor, 283 nM at serotonin S2 receptor and 135 nM on dopamine D2 receptor (setting [1]).

With `CCN1CCN(c2cc(C=O)c(OC)c(-c3ccccc3)c2)CC1` [Example 106, 1-Ethyl-4-(3-phenyl-4-methoxy-5-formyl)phenylpiperazine], the inhibition constant Ki on adrenergic α1 receptor was greater than 1000 nM; at serotonin S2 receptor, 380 nM; at dopamine D2 receptor (Ki value, dopamine D2 receptor), 44 nM.

Consider `CCCc1cc(N2CCN(CC)CC2)cc(-c2ccccc2C)c1OC` [Example 116, 1-Ethyl-4-[3-(2-tolyl)-4-methoxy-5-propyl]phenylpiperazine], for which the Ki on adrenergic α1 receptor was greater than 1000 nM; at serotonin S2 receptor, 39.5 nM; at dopamine D2 receptor (setting [1]) it was 9.65 nM.

On to `CCS(=O)(=O)c1cc(N2CCN(CCO)CC2)cc(-c2ccc(F)cc2)c1OC` [Example 195], for which the Ki at adrenergic α1 receptor is greater than 1000 nM; at serotonin S2 receptor, 5.75 nM; on dopamine D2 receptor (setting [1]), 70.6 nM.

With `CCN1CCN(c2cc(-c3ccccc3C)c(Cl)c(S(=O)(=O)N(C)C)c2)CC1` [Example 154, 1-Ethyl-4-[3-(2-tolyl)-4-chloro-5-dimethylaminosulfonyl]phenylpiperazine], the Ki on adrenergic α1 receptor was greater than 1000 nM; on serotonin S2 receptor, 153 nM; at dopamine D2 receptor (setting [1]), 2.59 nM.

Turning to `CCN1CCN(c2cc(-c3ccccc3)c(OC)c(S(=O)(=O)CCF)c2)CC1` [Example 172, 1-Ethyl-4-[3-phenyl-4-methoxy-5-(2-fluoroethane)sulfonyl]phenylpiperazine], the figures for the Ki on adrenergic α1 receptor, on serotonin S2 receptor and on dopamine D2 receptor (setting [1]) were greater than 1000 nM, 30.3 nM and 48.9 nM, respectively.

Regarding `CCC(O)c1cc(N2CCN(CC)CC2)cc(-c2ccccc2)c1OC` (stereo not drawn) [Example 83, 1-Ethyl-4-[3-phenyl-4methoxy-5-(1-hydroxypropyl)]phenylpiperazine], the inhibition constant Ki on adrenergic α1 receptor was greater than 1000 nM; at serotonin S2 receptor, 84.5 nM; at dopamine D2 receptor (setting [1]), 485 nM.

`C/C=C/c1cc(N2CCN(CC)CC2)cc(-c2ccccc2)c1OC` [Example 100, 1-Ethyl-4-[3-phenyl-4-methoxy-5-(1-propenyl)]phenylpiperazine hydrochloroide]: the inhibitory constant (Ki) was determined as 846 nM on adrenergic α1 receptor, 827 nM at serotonin S2 receptor and 82.7 nM at dopamine D2 receptor (setting [1]).

As to `CCN1CCN(c2cc(CCCF)c(OC)c(-c3ccccc3)c2)CC1` [Example 77, 1-Ethyl-4-[3-phenyl-4-methoxy-5-(3-fluoropropyl)]phenylpiperazine], the inhibition constant (Ki) on adrenergic α1 receptor is 182 nM; at serotonin S2 receptor, 24.3 nM; on dopamine D2 receptor (setting [1]) it was 40 nM.

With `CCCCS(=O)(=O)Nc1cc(N2CCN(CC)CC2)cc(-c2ccccc2Cl)c1Cl` [Example 33, 1-Ethyl-4-[3-(2-chlorophenyl)-4-chloro-5-butanesulfonylamino]phenylpiperazine], the inhibitory constant (Ki) on adrenergic α1 receptor turned out to be 86.9 nM; on serotonin S2 receptor it was 6.46 nM; at dopamine D2 receptor (setting [1]), 2.02 nM.

Regarding `CCCc1cc(N2CCN(CC)CC2)cc(-c2ccc(C(F)(F)F)cc2)c1OC` [Example 85, 1-Ethyl-4-[3-(4-trifluoromethylphenyl)-4-methoxy-5-propyl]phenylpiperazine], the Ki on adrenergic α1 receptor, at serotonin S2 receptor and at dopamine D2 receptor (setting [1]) was greater than 1000 nM in each case.

Consider `CCCS(=O)(=O)Nc1cc(N2CCN(CC)CC2)cc(-c2ccccc2Cl)c1Cl` [Example 32, 1-Ethyl-4-[3-(2-chlorophenyl)-4-chloro-5-propanesulfonylamino]phenylpiperazine], for which the Ki at adrenergic α1 receptor was 19.5 nM; at serotonin S2 receptor, 3.36 nM; on dopamine D2 receptor (setting [1]), 0.38 nM.

On to `CCN1CCN(c2cc(-c3ccccc3)c(Cl)c(S(=O)(=O)CC)c2)CC1` [Example 139, 1Ethyl-4-(3-phenyl-4-chloro-5-ethanesulfonyl)phenylpiperazine], for which the figures for the Ki at adrenergic α1 receptor, on serotonin S2 receptor and at dopamine D2 receptor (setting [1]) were 68.7 nM, 5.38 nM and 2.34 nM, respectively.

Consider `CCCS(=O)(=O)Nc1cc(N2CCN(C)CC2)cc(-c2ccccc2Cl)c1Cl` [Example 35, 1-Methyl-4-[3-(2-chloropheyl)-4-chloro-5-propanesulfonylamino]phenylpiperazine], for which the Ki at adrenergic α1 receptor stood at 17 nM; at serotonin S2 receptor, 3.37 nM; on dopamine D2 receptor (setting [1]), 0.5 nM.

On to `CCC(F)c1cc(N2CCN(CC)CC2)cc(-c2ccccc2)c1Cl` (stereo not drawn) [Example 127, 1-Ethyl-4-[3-phenyl-4-chloro-5-(1-fluoropropyl)]phenylpiperazine], for which the figures for the inhibition constant (Ki) at adrenergic α1 receptor, at serotonin S2 receptor and on dopamine D2 receptor (setting [1]) were 65.9 nM, 11.4 nM and 1.04 nM, respectively.

Consider `CCN1CCN(c2cc(-c3ccccc3C)c(Cl)c(C(C)F)c2)CC1` (stereo not drawn) [Example 52], for which the inhibition constant (Ki) at adrenergic α1 receptor was greater than 1000 nM; at serotonin S2 receptor it was 21.6 nM; on dopamine D2 receptor (setting [1]), 0.99 nM.

In the case of `CCN1CCN(c2cc(-c3ccccc3)c(OC)c(C(C)(C)F)c2)CC1` [Example 86, 1-Ethyl-4-[3-phenyl-4-methoxy-5-(1-fluoroisopropyl)]phenylpiperazine], the Ki is greater than 1000 nM on adrenergic α1 receptor, 29.4 nM at serotonin S2 receptor and 10.5 nM on dopamine D2 receptor (setting [1]).

Turning to `CCNS(=O)(=O)c1cc(N2CCN(CC)CC2)cc(-c2ccccc2)c1OC` [Example 123, 1-Ethyl-4-(3-phenyl-4-methoxy-5-ethylaminofonyl)phenylpiperazine], the values for the inhibitory constant (Ki) at adrenergic α1 receptor, at serotonin S2 receptor and on dopamine D2 receptor (setting [1]) were greater than 1000 nM, 17.9 nM and 27 nM, respectively.

For the molecule `CCN1CCN(c2cc(-c3ccccc3C)c(Cl)c(C(F)F)c2)CC1` [Example 185, 1-Ethyl-4-[3-(2-tolyl)-4-chloro-5-difluoromethyl]phenylpiperazine], the inhibition constant Ki at adrenergic α1 receptor was greater than 1000 nM; on serotonin S2 receptor it was greater than 100 nM; at dopamine D2 receptor (setting [1]), 0.58 nM.

On to `CCN1CCN(c2cc(-c3ccccc3)c(OC)c([S+]([O-])CC)c2)CC1` (stereo not drawn) [Example 105, 1-Ethyl-4-(3-phenyl-4-methoxy-5-ethanesulfinyl)phenylpiperazine], for which the results for the inhibition constant (Ki) at adrenergic α1 receptor, at serotonin S2 receptor and at dopamine D2 receptor (setting [1]) were 620 nM, 5.21 nM and 30.2 nM, respectively.

As for `CCCc1cc(N2CCN(CC)CC2)cc(-c2ccccc2F)c1OC` [Example 84, 1-Ethyl-4-[3-(2-fluorophenyl)-4-methoxy-5-propyl]phenylpiperazine], the Ki on adrenergic α1 receptor was greater than 1000 nM; at serotonin S2 receptor, 66.2 nM; on dopamine D2 receptor (setting [1]), 44.6 nM.
